Measurements from US20080064663A1, “Melt processing of phosphoroamido(di)thioate insecticides” (priority 2006, published 2008).

Test: Processing of acephate melt in oxygen free atmosphere: degradation
Assay type: physicochemical
Protocol: In some embodiments, the acephate-containing composition can be processed for more than 30 minutes without substantially any detectable degradation.

COP(=O)(NC(C)=O)SC (centres unmarked) [acephate]
reduction of the acephate stability during storage (after processing in molten state at 90° C. to 100° C. for 15 to 30 minutes under an effectively oxygen free atmosphere): without any reduction | degradation of the acephate processed in a molten state (molten state at 90° C. to 100° C. for 15 minutes to 30 minutes under an effectively oxygen free atmosphere): without substantial or detectable degradation
